Earlier results in patent US5304296A, “Glass pH electrodes” (National Power PLC, priority 1990, dated 1994).

NC(=O)CN(CC(=O)O)CC(=O)O [ADA, N-(2-acetamido)iminodiacetic acid]
pKa at 20° C.: 6.62
